Assay results: BindingDB's records for doi:10.1007/s00213-002-1073-7 (WestfÄLische Wilhelms-Universit&Auml, 2002)

Target: 5-hydroxytryptamine receptor 2C (Homo sapiens, UniProt P28335)
Sequence (P28335 whole entry): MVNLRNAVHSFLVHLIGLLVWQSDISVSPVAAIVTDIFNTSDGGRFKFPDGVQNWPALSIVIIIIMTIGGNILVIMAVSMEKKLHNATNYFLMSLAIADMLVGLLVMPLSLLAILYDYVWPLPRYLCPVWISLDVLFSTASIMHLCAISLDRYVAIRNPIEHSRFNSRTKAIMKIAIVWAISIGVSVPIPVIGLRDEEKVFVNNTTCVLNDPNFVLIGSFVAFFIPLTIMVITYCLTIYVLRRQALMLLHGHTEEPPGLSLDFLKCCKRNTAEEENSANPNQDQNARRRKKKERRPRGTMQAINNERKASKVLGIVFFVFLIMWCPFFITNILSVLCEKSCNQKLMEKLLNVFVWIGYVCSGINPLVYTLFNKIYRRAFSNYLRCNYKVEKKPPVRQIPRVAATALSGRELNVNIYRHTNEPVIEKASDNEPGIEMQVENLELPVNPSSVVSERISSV

A Ki of 2.56 µM was found for O=c1cc(O)cc2oc(-c3ccc(O)c(-c4c(O)cc(O)c5c(=O)cc(-c6ccc(O)cc6)oc45)c3)cc(O)c1-2 in this work.
